According to patent publication US20260014278A1, “HYBRID PEPTIDE DENDRIMER SYSTEMS AND EXTRAHEPATIC DELIVERY” (NUNTIUS THERAPEUTICS LIMITED, priority 2022, published 2026):

test system: Mouse muscle cells (C2c12); assay: eGFP expression (RFU/mg) in C2c12 muscle cells, muscle-targeting dendrimers; assay type: cell-based; details: N:P=0.6:1, DOTMA:DOPE w/w 10:1, 24 hours post-transfection; FIG. 9
Procedure: Cell lines, transfection reagents and mRNA. C2c12 cells were maintained in DMEM medium with 10% (v/v) FCS and 1% (v/v) L-glutamine in a humidified atmosphere in 5% CO2, and 37° C. The Alexa Fluor 488 tagged mRNA, expressing an eGFP, was purchased from RiboPro. The mRNA either expressing an eGFP or firefly luciferase was purchased from Trilink. DOTMA:DOPE, 1:1 (w/w) were obtained from Invitrogen or Encapsula NanoSciences LLC.
Transfection procedure. 24 hours before transfection, C2c12 cells were seeded in 96well plates in order to reach 70% confluence. mRNA transfection complexes were formed by mixing mRNA with the dendrimers in 25 mM HEPES buffer, then with DOTMA:DOPE in 25 mM HEPES buffer at 25° C. The transfection complexes were then overlaid to the cells in full growth medium. The cells were harvested 4 hours after transfection for FACS analysis or 24 hours post transfection for reporter genes assays.
Two variants (NTX2 and NTX3) of the peptide dendrimer GSCG1,2-RL, 3-LR ((LR)8(KRL)4(KRL)2KGSC-NH2) were made which include the ASSLNIA (SEQ ID NO:1) muscle targeting peptide. Transfection of muscle cells with GSCG1,2-RL, 3-LR, NTX2 ((LR)8(KRL)4(KRL)2[…](Acp)-NH2) or NTX3 ((LR)8(KRL)4(KRL)2[…](Acp)-NH2) was performed using eGFP mRNA and transfection efficiency was assayed using either flow cytometry or the transgene expression assay. […]
Transgene expression assay: The cells were washed twice with PBS and incubated with 50 ul of 1× M-PER lysis buffer (Thermo 11874111). […] 40 ul of lysate from each well was transferred to all black 96 well plates for quantification of eGFP relative fluorescence unit (RFU), absorbance at 535 nm, using Molecular devices SpectraMax iD5.
Protein content determination: The protein content of each cell lysate was determined by mixing the lysate (25 μL) with Pierce™ BCA Protein Assay Kit (200 ul, Thermo Scientific). After 30 minutes of 37° C. incubation in at dark, absorbance was measured at 562 nm with Molecular devices SpectraMax iD5 and converted to protein concentration using a BSA standard curve. […]

For “(LR)8(KRL)4(KRL)2KGSCGAASSLNIA(Acp)-NH2 [NTX2]”, the “increase in eGFP expression compared to GSCG1,2-RL, 3-LR” value was “two-fold”.

same assay, conditions: N:P=0.6:1, DOTMA:DOPE w/w 10:1, 24 hours post-transfection; FIG. 10

For “(LR)4(KRL)2KRHCGAASSLNIA-(Acp)-NH2 [NTX5]”, the “increase in eGFP expression compared to RHCG1-RL, 2-LR” value was “˜two-fold”.

test system: not listed separately; assay: Dynamic light scattering: hydrodynamic size and polydispersity index (PDI) of nanoparticles; assay type: physicochemical; details: GSCG1,2-RHL N:P 0.6:1, DOTMA/DOPE nanoparticles coated at 2.06:1 (dendrimer to mRNA)
Procedure: (§1) The hydrodynamic size was measured using the dynamic light scattering (DLS) technique. DLS is a very sensitive, non-invasive method to measure size and size distribution of nanoparticles in a liquid. […] Analysing these intensity fluctuations allows us to calculate the velocity of the Brownian motion. The size of the nanoparticles can be determined by using the Stokes-Einstein relationship. With the latest technology, it can measure nanoparticles smaller than 1 nm.
PDI is used to estimate the average uniformity of a particle solution, The method of cumulants is a standard technique for analysing DLS data on sample polydispersity. PDI is a number calculated from a 2 parameter fit to the correlation data (the cumulants analysis). The cumulants analysis is used to evaluate the autocorrelation function generated by a DLS experiment. The calculation is defined in ISO 13321 and ISO 22412. PDI values greater than 0.7 indicate that the sample has a very broad size distribution and is not suitable for the DLS technique. The calculations for these parameters are defined in the ISO standard document 13321:1996 E and ISO 22412:2008.
as §1, with “Size, zeta potential and polydispersity index (PDI) measurement: The hydrodynamic” for “The hydrodynamic”, “scattering (DLS) technique using the Zetasizer Advance Series—Pro (Malvern Panalytical Ltd, Malvern, UK) according to the manufacturer's instructions. DLS is” for “scattering (DLS) technique. DLS is”
The data obtained with DLS measurements can also be used to calculate the PDI of particle in solution. PDI is used to estimate the average uniformity of a particle solution. The method of cumulants is a standard technique for analysing DLS data on sample polydispersity. PDI is a number calculated from a 2 parameter fit to the correlation data (the cumulants analysis). The cumulants analysis is used to evaluate the autocorrelation function generated by a DLS experiment. The calculation is defined in ISO 13321 and ISO 22412. PDI values greater than 0.7 indicate that the sample has a very broad size distribution and is not suitable for the DLS technique. The calculations for these parameters are defined in the ISO standard document 13321:1996 E and ISO 22412:2008.
To measure the size and PDI, the samples were diluted 16× in 25 mM HEPES buffer (5 μl sample+75 μl buffer). Parameters: reference material: polystyrene latex, dispersant: water, 25° C. The PDI measurements were measured in nanoparticles comprising a dendrimer:nucleic acid NP ratio of 8:1.

In the case of (Ac-EEEE)2KGSGGSGGSC-NH2, the PDI is reported as 0.12.

(Ac-EEEE)2KGSGGSGGSC-NH2 showed a size of 166 nm.

same assay, conditions: GSCG1,2-RHL N:P 0.6:1, DOTMA/DOPE nanoparticles coated at 2.72:1 (dendrimer to mRNA)

(Ac-EEEE)2KGSGGSGGSC-NH2 showed a PDI of 0.13.

With (Ac-EEEE)2KGSGGSGGSC-NH2 the size was 169 nm.

same assay, conditions: GSCG1,2-RHL N:P 0.6:1, DOTMA:DOPE nanoparticles; coating mol ratio 2.06 to mRNA P where coated

Compared with (Ac-EEEE)2KGSGGSGGSC-NH2, “(Ac-EEEE)2KGSGGSGGSACDCRGDCFCG-NH2 (Disulfide bridges: C1-C4, C2-C3)” is higher in Pdl: 0.16 for the first, 0.20 for the second.

First: (Ac-EEEE)2KGSGGSGGSC-NH2
Second: (Ac-EEEE)2KGSGGSGGSACDCRGDCFCG-NH2 (Disulfide bridges: C1-C4, C2-C3)
The Z-average diameter of the first is lower: 165 nm for the first, 191 nm for the second.

same assay, conditions: Table 7, first generation dendrimers for mixed dendrimer nanoparticles

(RLR)2KRHC-NH2 [RHCG1-RLR] gave a PDI of 0.766.

same assay, conditions: peptide dendrimer, lipid and mRNA complexes; N:P 8:1, DOTMA/DOPE w/w 10:1 to mRNA

First: (RL)8(KRL)4(KLR)2KGSC-NH2 [GSCG1-LR, 2,3-RL]
Second: (LR)8(KRL)4(KRL)2KRFW-NH2 [RFWG1,2-RL, 3-LR]
The “Polydispersity Index (PDI)” value of the first is higher: 0.417 for the first, 0.401 for the second.

Compared with “(QR)8(KRT)4(KRY)2KGSC-NH2 [GSCG1-RY, 2-RT, 3-QR]”, “(MR)8(KRC)4(KRC)2KGSC-NH2 [GSCG1-RC, 2-RC, 3-MR]” is higher in “Polydispersity Index (PDI)” value: 0.178 for the first, 0.19 for the second.

First: (RL)8(KLR)4(KLR)2KGSC-NH2 [GSCG1,2-LR, 3-RL]
Second: (LR)8(KRL)4(KRL)2KRHC-NH2 [RHCG1,2-RL, 3-LR]
The “Polydispersity Index (PDI)” value of the first is lower: 0.242 for the first, 0.363 for the second.

First: (lr)8(krl)4(krl)2kgsc-NH2
Second: (RLR)4(KRLR)2KRHC-NH2 [RHCG1,2-RLR]
The “Polydispersity Index (PDI)” value of the first is higher: 0.246 for the first, 0.214 for the second.

Compared with “(FR)8(KRQ)4(KRW)2KGSC-NH2 [GSCG1-RW, 2-RQ, 3-FR]”, (LR)8(DabRL)4(DabRL)2DabGSC-NH2 is lower in “Polydispersity Index (PDI)” value: 0.452 for the first, 0.286 for the second.

Compared with “(HK)8(KKH)4(KKL)2KGSC-NH2 [GSCG1-KL, 2-KH, 3-HK]”, “(R)8(KRL)4(KRLR)2KRHC-NH2 [RHCG1-RLR, 2-RL, 3-R]” is higher in “Polydispersity Index (PDI)” value: 0.126 for the first, 0.429 for the second.

Compared with “(WR)8(KRM)4(KRF)2KGSC-NH2 [GSCG1-RF, 2-RM, 3-WR]”, “(LR)8(KR)4(KRLRL)2KRHC-NH2 [RHCG1-RLRL, 2-R, 3-LR]” is higher in “Polydispersity Index (PDI)” value: 0.277 for the first, 0.37 for the second.

First: (LR)8(KLR)4(KLR)2KGSC-NH2 [GSCG1,2,3-LR]
Second: (YR)8(KRT)4(KRQ)2KGSC-NH2 [GSCG1-RQ, 2-RT, 3-YR]
The “Polydispersity Index (PDI)” value of the first is lower: 0.272 for the first, 0.409 for the second.

Compared with “(LR)8(KR)4(KRLR)2KRHC-NH2 [RHCG1-RLR, 2-R, 3-LR]”, “(RLR)8(KRLR)4(KRLR)2KRHC-NH2 [RHCG1,2,3-RLR]” is lower in “Polydispersity Index (PDI)” value: 0.439 for the first, 0.299 for the second.

Compared with “(lR)8(KrL)4(KRL)2KGSC-NH2 [GSCG1-Rl, 2-rL, 3-lR]”, (LR)2KRHC-NH2 [RHCG1-LR] is higher in “Polydispersity Index (PDI)” value: 0.241 for the first, 0.577 for the second.

Compared with (RR)4(KLL)2KGSC-NH2 [GSCG1-LL, 2-RR], “(LR)8(KRL)4(KRE)2KGSC-NH2 [GSCG1-RE, 2-RL, 3-LR]” is higher in “Polydispersity Index (PDI)” value: 0.087 for the first, 0.158 for the second.

Compared with (LRLR)4(KLRLR)2KGSC-NH2 [GSCG1,2-LRLR], “(LR)8(KRL)4(KRL)2KGSCRHCRFWRYM-NH2 [LinearG1,2-RL, 3-LR]” is higher in “Polydispersity Index (PDI)” value: 0.189 for the first, 0.289 for the second.

Compared with “(BR)8(KRB)4(KRX)2KGSC-NH2 [GSCG1-RX, 2-RB, 3-BR]”, “(LR)8(KRL)4(KRL)2KRYM-NH2 [RYMG1,2-RL, 3-LR]” is lower in “Polydispersity Index (PDI)” value: 0.403 for the first, 0.257 for the second.

Going from (R)4(KR)2KRHC-NH2 [RHCG1,2-R] to (R)8(KR)4(KR)2KRHC-NH2 [RHCG1,2,3-R], the “Polydispersity Index (PDI)” value rises from 0.252 to 0.396.

Going from “(LRLR)8(KLRLR)4(KLRLR)2KGSC-NH2 [GSCG1,2,3-LRLR]” to “(LR)8(KRL)4(KRL)2KA-NH2 [AG1,2-RL, 3-LR]”, the “Polydispersity Index (PDI)” value falls from 0.287 to 0.184.

For “(LR)8(KRL)4(KRL)2KYM-NH2 [YMG1,2-RL, 3-LR]”, the “Polydispersity Index (PDI)” value was 0.213.

test system: not listed separately; assay: Zeta potential of nanoparticles (electrophoretic light scattering); assay type: physicochemical; details: GSCG1,2-RHL N:P 0.6:1, DOTMA/DOPE nanoparticles coated at 2.06:1 (dendrimer to mRNA)
Description: Zeta potential is a measurement of the magnitude of the electrostatic or charge repulsion/attraction between particles. This can be determined by analysing particle mobility and charge (Zeta potential) using the Electrophoretic Light Scattering (ELS) technique.
Zeta potential is a measurement of the magnitude of the electrostatic or charge repulsion/attraction between particles. This can be determined by analysing particle mobility and charge (Zeta potential) using the Electrophoretic Light Scattering (ELS) technique. […] Parameters: reference material: polystyrene latex, dispersant: water, 25° C. The measurements of the zeta potential were carried out using the Zetasizer Advance Series—Pro (Malvern Panalytical Ltd, Malvern, UK) according to the manufacturer's instructions.

Substance (Ac-EEEE)2KGSGGSGGSC-NH2 has a zeta potential of roughly 33.2 mV.

same assay, conditions: GSCG1,2-RHL N:P 0.6:1, DOTMA/DOPE nanoparticles coated at 2.72:1 (dendrimer to mRNA)

With (Ac-EEEE)2KGSGGSGGSC-NH2 the zeta potential was roughly 35.4 mV.

same assay, conditions: GSCG1,2-RHL N:P 0.6:1, DOTMA:DOPE nanoparticles; coating mol ratio 2.06 to mRNA P where coated

First: (Ac-EEEE)2KGSGGSGGSC-NH2
Second: (Ac-EEEE)2KGSGGSGGSACDCRGDCFCG-NH2 (Disulfide bridges: C1-C4, C2-C3)
The “zeta potential” value of the first is higher: −29.3 mV for the first, −31.9 mV for the second.
